Some test systems named below: 786-0 renal; SF-295 CNS; SK-MEL-2 melanoma; OVCAR-4 ovarian; RXF 393 renal; CAKI-1 renal; SR leukemia; T-47D breast; DU-145 prostate; MCF7 breast.
Common to all, as to test: DTP human tumour cell line panel, 48 h

Structures are written as SMILES.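 Cells were grown in 96-well plates and exposed to each compound for 48 hours at five concentrations; endpoints were interpolated linearly between bracketing concentrations, or set to the highest concentration if not reached. The concentration for 50% growth inhibition is given as GI50. TGI denotes the concentration required for complete inhibition of growth.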

In the case of `CCCCCCCCCCCC(=O)OC(COC(N)=O)COc1ccc(Cl)cc1` (stereo unspecified), the TGI in the test with 786-0 renal was greater than 100 µM; in the test with SF-295 CNS, 40 µM; in the test with SK-MEL-2 melanoma, 74.4 µM; in the test on OVCAR-4 ovarian, 40.9 µM; in the test on RXF 393 renal, 43.9 µM; in the test with CAKI-1 renal, 44.3 µM.

As for `NCC1(N2CCOCC2)C2CCCC21CNc1ccccc1` (stereo unspecified), the TGI in the test on 786-0 renal, in the test with SF-295 CNS, with OVCAR-4 ovarian, in the test with RXF 393 renal, with SR leukemia and with CAKI-1 renal was greater than 100 µM in each case.

For `NC(=O)c1ncn(Cc2ccccc2)c1CNC(N)=S`, the concentration for total growth inhibition (TGI) with 786-0 renal, with SF-295 CNS, in the test with OVCAR-4 ovarian, in the test on RXF 393 renal and with SR leukemia was greater than 100 µM each time.

Consider `O=C(/C=C/c1ccc(O)cc1)c1cc(Cl)ccc1O`, for which the TGI is greater than 100 µM in the test with 786-0 renal; greater than 100 µM in the test with SF-295 CNS; greater than 100 µM with OVCAR-4 ovarian; 88.9 µM in the test on RXF 393 renal; 54.6 µM in the test on SR leukemia; greater than 100 µM with CAKI-1 renal.

Consider `CC1COCCN1CC#CCOC(=O)c1cc2ccccc2oc1=O` (stereo unspecified), for which the GI50 in the test with 786-0 renal, in the test with SF-295 CNS, with SK-MEL-2 melanoma, with OVCAR-4 ovarian, with T-47D breast and in the test with DU-145 prostate was greater than 100 µM each time. Further, the GI50 with RXF 393 renal, in the test with CAKI-1 renal and in the test with MCF7 breast was greater than 100 µM throughout. Further, the TGI in the test with 786-0 renal, in the test on SF-295 CNS, with SK-MEL-2 melanoma, in the test on OVCAR-4 ovarian, with T-47D breast and in the test on DU-145 prostate was greater than 100 µM in each case. Also, the TGI with RXF 393 renal, in the test with CAKI-1 renal and in the test with MCF7 breast was greater than 100 µM in each case.

Turning to `O=C1c2ccccc2C(=O)c2c1ccc1c2N=C(c2ccc(Br)cc2)CC(c2cccc3ccccc23)N1` (stereo unspecified), the TGI in the test on 786-0 renal, in the test on SF-295 CNS, with SK-MEL-2 melanoma, with OVCAR-4 ovarian, with RXF 393 renal and in the test with SR leukemia was greater than 100 µM in each case. The compound also came in with a TGI in the test on CAKI-1 renal greater than 100 µM.

As for `Cn1cnc([N+](=O)[O-])c1Sc1nc2ccc([N+](=O)[O-])cc2[nH]1`, the total growth inhibition concentration (TGI) was greater than 100 µM in the test with 786-0 renal; greater than 100 µM in the test on SF-295 CNS; greater than 100 µM with OVCAR-4 ovarian; 40.1 µM in the test with RXF 393 renal; 41.5 µM in the test with SR leukemia; 26.7 µM in the test on CAKI-1 renal.

Regarding `COc1ccc2c(c1)C(=O)c1c-2c(N2CCN(C(=O)CCNCCNCCO)CC2)nc2ccccc12`, the GI50 was 11.4 µM with 786-0 renal; 18.8 µM with SF-295 CNS; 24.1 µM in the test on SK-MEL-2 melanoma; 21.2 µM with OVCAR-4 ovarian; 13.4 µM in the test on T-47D breast; 12.1 µM in the test on DU-145 prostate. For the same compound, the GI50 is 24 µM in the test with CAKI-1 renal and 7.27 µM in the test on MCF7 breast. Moreover, the TGI with 786-0 renal is 25.6 µM; in the test on SF-295 CNS it was 39.3 µM; in the test with SK-MEL-2 melanoma it was 52.6 µM; in the test on OVCAR-4 ovarian, 42.2 µM; in the test on T-47D breast, 29.8 µM; in the test on DU-145 prostate it was 24.5 µM. For the same compound, the values for the total growth inhibition concentration (TGI) in the test on CAKI-1 renal and in the test with MCF7 breast were 53.3 µM and 25.9 µM, respectively.

As for `CC1CC(c2ccc(Cl)c(Cl)c2)=Nc2ccccc2S1` (stereo unspecified), the TGI in the test with 786-0 renal, with SF-295 CNS, in the test with OVCAR-4 ovarian, in the test with RXF 393 renal, in the test on SR leukemia and in the test on CAKI-1 renal was greater than 100 µM in each case.

In the case of `C[C@H](c1ccccc1)N(CCC(=O)O)C(=O)CCN(C(=O)CCN(C(=O)CCN[C@H](C)c1ccccc1)[C@H](C)c1ccccc1)[C@H](C)c1ccccc1`, the GI50 in the test on 786-0 renal, in the test on SF-295 CNS, with SK-MEL-2 melanoma, with OVCAR-4 ovarian, with T-47D breast and in the test with DU-145 prostate was greater than 100 µM each time. The GI50 in the test with RXF 393 renal, with CAKI-1 renal and with MCF7 breast was greater than 100 µM each time. Besides, the TGI in the test with 786-0 renal, in the test on SF-295 CNS, in the test on SK-MEL-2 melanoma, in the test on OVCAR-4 ovarian, in the test on T-47D breast and in the test with DU-145 prostate was greater than 100 µM each time. For the same compound, the TGI in the test with RXF 393 renal, in the test with CAKI-1 renal and with MCF7 breast was greater than 100 µM throughout.

On to `CC1(C)CC(N2CCN(C3CC(C)(C)NC(C)(C)C3)CC2)CC(C)(C)N1`, for which the TGI with 786-0 renal, in the test with SF-295 CNS, in the test with OVCAR-4 ovarian, in the test on RXF 393 renal, with SR leukemia and with CAKI-1 renal was greater than 100 µM each time.

With `N#Cc1cn(-c2c3ccccc3nc3ccccc23)c(=O)[nH]c1=O`, the TGI in the test on 786-0 renal is 13.5 µM; in the test on SF-295 CNS it was 23.8 µM; in the test on SK-MEL-2 melanoma, 24.9 µM; with OVCAR-4 ovarian, 20.4 µM; in the test with SR leukemia, 24.6 µM; in the test on CAKI-1 renal, 45.6 µM.

With `Cc1ccc2nc3c(C)cc(=O)cc-3sc2c1`, the concentration for total growth inhibition (TGI) with 786-0 renal is 35.4 µM; in the test with SF-295 CNS, greater than 100 µM; in the test on SK-MEL-2 melanoma it was 52.7 µM; in the test with OVCAR-4 ovarian, 33.6 µM; in the test with SR leukemia it was 46.7 µM; with CAKI-1 renal, 37.4 µM.

Consider `O=C(O)c1cn(C2CC2)c2cc(N3CCN(Cc4ccc5ccccc5c4O)CC3)c(F)cc2c1=O`, for which the GI50 is 2.34 µM in the test with 786-0 renal; 4.29 µM in the test with SF-295 CNS; 5.11 µM in the test on SK-MEL-2 melanoma; greater than 100 µM in the test on T-47D breast; 2.29 µM in the test on RXF 393 renal; 3.63 µM in the test on MCF7 breast. The TGI with 786-0 renal was 5.42 µM; in the test with SF-295 CNS it was greater than 100 µM; in the test with SK-MEL-2 melanoma, greater than 100 µM; in the test on T-47D breast, greater than 100 µM; in the test on RXF 393 renal, 5.64 µM; in the test with MCF7 breast it was greater than 100 µM.

As for `NC(=O)c1cc([N+](=O)[O-])cc([N+](=O)[O-])c1`, the TGI in the test on 786-0 renal, with SF-295 CNS, with SK-MEL-2 melanoma, with OVCAR-4 ovarian, in the test with RXF 393 renal and in the test on SR leukemia was greater than 100 µM in each case. Moreover, the TGI in the test on CAKI-1 renal was greater than 100 µM.

The values above are taken from PubChem BioAssay (NCI).
